Earlier results on one compound are cited in patent US20090117079A1, “METHODS AND MATERIALS FOR TREATING OR PREVENTING DISEASES/DISORDERS MEDIATED BY ALCOHOL DEHYDROGENASE” (priority 2007, published 2009).

The structures appear in SMILES notation.

The data set relates to alcohol dehydrogenase (ADH I). Particulars: competitive inhibition of ADH I in humans; affinity of ethanol relative to methanol.

On to `CCO` [ethanol], for which the ethanol/methanol affinity ratio is given as 10/1.
